Columns and labels:
Format in all cases: cell-based, mouse
N2a cells = assay: Morphological analysis of N2a cells (optical microscopy); conditions: untreated cells mostly rounded (FIG. 9C)
Procedure: (§1) Followed by the RT-PCR analysis, the present inventor investigated whether ginsenosides Re and Rd induce the expression of MAP-2 and p75 and the differentiation of neurons actually, via immunocytochemistry and morphological analysis using optical microscopic observation.
(§2) Specifically, Cultured N2a cells were fixed in 4% paraformaldehyde (in PBS) for 15 min, washed twice with PBS supplemented with 100 mM glycine for 5 min, and incubated with permeabilization buffer consisting of 0.1% Triton X-100 (Sigma-Aldrich, USA) in PBS for 30 min at room temperature. Blocking was performed with 1% bovine serum albumin (BSA, Sigma-Aldrich, USA) for 30 min at room temperature. Then Microtubule-Associated Protein-2 (MAP-2) or VAChT mouse monoclonal antibody 1:200 (Santa Cruz Biotechnology, USA) was added to 1% BSA in PBS with Tween 20 (PBST) and incubated for 2 h at room temperature. Cells were then washed three times with PBS before fluorescein isothiocyanate (FITC)-conjugated anti-mouse immunoglobulin G (IgG) 1:200 (Cell Signaling Technology, USA) was added to 1% BSA for 1 h at room temperature. The cells were rinsed and counterstained with 4,6-diamidino-2-phenylindole (DAPI, Sigma-Aldrich) for 10 min, followed by two PBS washes. […]

TrkA = TrkA gene expression in N2a cells (quantitative RT-PCR); conditions: 24 h, Rd 5 μg/ml, Re 5 μg/ml or Rd/Re each 2.5 μg/ml (FIG. 11)
Procedure: On the other hand, the present inventor investigates the expression level of TrkA gene after treating ginsenoside Rd (5 μg/ml), Re (5 μg/ml) or mixture of Rd/Re (each 2.5 μg/ml) to N2a cells for 24 h, using quantitative RT-PCR method, similar to the method described in the Example 4 (FIG. 11).

NGF = NGF mRNA expression in N2a cells (quantitative RT-PCR); conditions: N2a cells (FIG. 13)
Source text: Since NGF-Trk signal pathway upregulates ChAT and VAChT, it is important to know whether ginsenosides Rd and Re regulate Trk activity directly or at least indirectly. Therefore, the inventor investigated whether the expression of ChAT and VAChT was blocked by treating K252a, an inhibitor against protein kinase C (PKC) and Trk together with ginsenoside Rd or Re, in order to determine more closely whether the expression of cholinergic surface markers and the differentiation of neurons by the treatment of ginsenosides Rd and Re are caused whereby they act NGF-TrkA pathway directly. Particularly, N2a cells were treated with or without K252a (50 nM) in the presence of NGF (100 ng/mL), Re (5 μg/mL) or Rd (5 μg/mL) for 48 h. Total RNA and protein lysates were isolated as described in the Example 4-1 (FIG. 12). […] In addition, the present inventor performed quantitative RT-PCR in order to verify whether the treatment of ginsenosides Rd and Re affect the expression of NGF and NGFR in N2a cells.

CHT1 = CHT1 expression in N2a cells; conditions: N2a cells (FIG. 7E)
Procedure: (§3) Specifically, total RNA extracts from N2a cells were prepared using the Trizol method (Invitrogen, USA) and cDNA was synthesized from RNA by reverse transcription of 1 μg of total RNA using a reverse transcription system (Improm-II, Promega, USA) and oligo dT primers in a total volume of 20 μL. PCR amplification was performed using the primers described in Table 2 (Bioneer, Korea). Quantitative real-time PCR reactions were run on a Rotor-Gene 6000 (Corbett Research, Australia) using SensiMix™ SYBR Hi-ROX Kit (Bioline, U.K.) in 20 μL reaction mixtures. Each real-time-PCR master mix contained 10 μL 2× enzyme master mix, 7.0 μL RNase free water, 1 μL of each primer (10 pM each), and 1 μL diluted template. The PCR was performed with an initial pre-incubation step for 15 min at 95° C., followed by 45 cycles of 95° C. for 15 s, annealing at 52° C. for 15 s, and extension at 72° C. for 10 s. Melting curve analysis was used to confirm formation of the expected PCR product, and products from all assays were additionally tested with 1.2% agarose gel electrophoresis to confirm the correct lengths. […] Relative sample expression levels were calculated using Rotor-Gene 6000 Series Software 1.7, and were expressed relative to β-actin and corrected for between-run variability. Data for the experimental samples were expressed as a fold unit the internal control gene. […]

MAP-2 [1] = assay: MAP-2 protein immunocytochemistry in N2a cells; conditions: compared with NGF (FIG. 9A)
Procedure: as §1, §2

ERK = ERK phosphorylation in N2a cells (western blot); conditions: compared with NGF (FIG. 10)
Source text: The cholinergic marker ChAT and VAChT are known activate the ERK and Akt lower level path for cholinergic gene expression (Williams et al., Neurosci. Lett., 413: 110-114, 2007; Madziar et al., J. Neurochem., 107: 1284-1293, 2007) by controlling the NGF-TrkA signaling pathway. Thus, the present inventor investigated whether ginsenosides Rd and Re regulate activity of ERK and Akt in N2a cells using through western blot analysis. Specifically, N2a cells were lysed in 1% radioimmunoprecipitation assay (RIPA) buffer containing protease and phosphatase inhibitors (Roche, Mannheim, Germany) and whole cell lysates were separated by 10% sodium dodecyl sulfate polyacrylamide gel electrophoresis (SDS-PAGE). After electrophoresis, proteins were transferred onto polyvinylidene fluoride (PVDF) membranes and the membranes were blocked with 5% skim milk in Tris-buffered saline solution containing 0.1% Tween-20. The membrane was then immunoblotted with primary antibodies, anti-phospho-Akt, anti-phospho-extracellular signal-regulated protein kinase (ERK), anti-ChAT and anti-f3-actin (Santa Cruz Biotechnology, Santa Cruz, USA), and this was followed by incubation with horseradish peroxidase-conjugated anti-rabbit or anti-mouse secondary antibodies (Stressgen, USA). Blots were developed using an enhanced chemiluminescence (ECL) solution (Thermo, USA).

MAP-2 [2] = assay: MAP-2 mRNA expression in N2a cells (real-time RT-PCR); conditions: 5 μg/ml (FIG. 8)
Procedure: as §3

CC(C)=CCC[C@](C)(O[C@@H]1O[C@H](CO)[C@@H](O)[C@H](O)[C@H]1O)[C@H]1CC[C@]2(C)[C@@H]1[C@H](O)C[C@@H]1[C@@]3(C)CC[C@H](O)C(C)(C)[C@@H]3[C@@H](O[C@@H]3O[C@H](CO)[C@@H](O)[C@H](O)[C@H]3O[C@@H]3O[C@@H](C)[C@H](O)[C@@H](O)[C@H]3O)C[C@]12C [ginsenoside Re]
morphological changes of N2a cells (N2a cells): induced the production of distinctive multiple projections
expression of TrkA (TrkA): increased the expression of TrkA in a dose-dependent manner
NGF mRNA level (NGF): significantly increased
expression of CHT1 (CHT1): increased
production of MAP-2 protein (MAP-2 [1]): stimulated effectively the production of MAP-2 protein
ERK activation (phosphorylation) (ERK): could activate ERK and Akt with phosphorylation as much as NGF
expression of MAP-2 mRNA (MAP-2 [2]): significantly increased

CC(C)=CCC[C@](C)(O[C@@H]1O[C@H](CO)[C@@H](O)[C@H](O)[C@H]1O)[C@H]1CC[C@]2(C)[C@@H]1[C@H](O)C[C@@H]1[C@@]3(C)CC[C@H](O[C@@H]4O[C@H](CO)[C@@H](O)[C@H](O)[C@H]4O[C@@H]4O[C@H](CO)[C@@H](O)[C@H](O)[C@H]4O)C(C)(C)[C@@H]3CC[C@]12C [ginsenoside Rd]
morphological changes of N2a cells (N2a cells): induced the production of distinctive multiple projections
expression of TrkA (TrkA): increased the expression of TrkA in a dose-dependent manner
NGF mRNA level (NGF): significantly increased
expression of CHT1 (CHT1): increased
production of MAP-2 protein (MAP-2 [1]): stimulated effectively the production of MAP-2 protein
ERK activation (phosphorylation) (ERK): could activate ERK and Akt with phosphorylation as much as NGF
expression of MAP-2 mRNA (MAP-2 [2]): significantly increased
